Data as given in patent publication US11945794B2, “Nuclear transport modulators and uses thereof” (Karyopharm Therapeutics Inc., priority 2013, dated 2024).

What was measured:
3T3 cells = assay: MTT cell proliferation assay; format: cell-based; settings: Mus musculus, NIH3T3, approximately 64-72 hours
Experimental: (§1) The MTT cell proliferation assay was used to study the cytotoxic properties of the compounds. The assay was performed according to the method described by Roche Molecular Biochemicals, with minor modifications. The assay is based on the cleavage of the tetrazolium salt, MTT, in the presence of an electron-coupling reagent. The water-insoluble formazan salt produced must be solubilized in an additional step. Cells grown in a 96-well tissue culture plate were incubated with the MTT solution for approximately 4 hours. After this incubation period, a water-insoluble formazan dye formed. After solubilization, the formazan dye was quantitated using a scanning multi-well spectrophotometer (ELISA reader). […] The cells were seeded at 5,000-10,000 cells in each well of 96-well plate in 100 μL of fresh culture medium and were allowed to attach overnight. The stock solutions of the compounds were diluted in 100 μL cell culture medium to obtain eight concentrations of each test compound, ranging from 1 nM to 30 μM. […] All optical densities were measured at 490 nm using a Vmax Kinetic Microplate Reader (Molecular Devices). In most cases, the assay was performed in duplicate and the results were presented as a mean percent inhibition to the negative control±SE. The following formula was used to calculate the percent of inhibition: Inhibition (%)=(1−(ODo/OD))×100.
(§2) The compounds were tested against Z138, MM1S and 3T3 cells. The Z138 cell line is a mature B-cell acute lymphoblastic leukemia cell line derived from a patient with chronic lumphocytic leukemia. The MM1S cell line was established from the peripheral blood of a human multiple myeloma patient. 3T3 cells are standard fibroblast cells; they were originally isolated from Swiss mouse embryo tissue.

MM1S cells = assay: MTT cell proliferation assay; format: cell-based; settings: Homo sapiens, MM1.S, approximately 64-72 hours
Experimental: as §1, §2

Z138 cells = assay: MTT cell proliferation assay; format: cell-based; settings: Homo sapiens, Z-138, approximately 64-72 hours
Experimental: as §1, §2

CRM1 = target: T1, CRM1 (Homo sapiens, UniProt O14980); assay: Inhibition of nuclear export, RevGFP assay in U2OS-RevGFP cells; format: cell-based; settings: approximately 1 hour incubation
T1 construct: endogenous in cells; host or cells: U2OS cells stably expressing Rev-GFP
Experimental: The inhibition of CRM1 mediated nuclear export by compounds of the invention was determined in a RevGFP assay. Rev is a protein from human immunodeficiency virus type 1 (HIV-1) and contains a nuclear export signal (NES) in its C-terminal domain and a nuclear localization signal (NLS) in its N-terminal domain. Nuclear export of Rev protein is dependent on the classical NES/CRM1 pathway (Neville et al, 1997, Kau et al, 2003).
In this assay, U2OS-RevGFP cells were seeded onto clear-bottom, black, 384-well plates the day before the experiment. Compounds were serially diluted 1:2 starting from 40 μM in a separate 384-well plate in DMEM, and then transferred onto cells. Cells were incubated with compound for approximately 1 hour before fixation with 3.7% formaldehyde and nuclei staining with Hoechst 33258. The amount of GFP in cell nuclei was measured and compound IC50s were determined (Kau et al, 2003).

MDA-MB-468 xenograft = MDA-MB-468 xenograft model; format: in vivo, mouse; settings: 10 mg/kg PO once daily, CB-17 SCID mice, compared to vehicle
Experimental: MDA-MB-468 (ATCC #HTB-102) breast adenocarcinoma cells were obtained from ATCC. These cells were grown in high glucose DMEM medium supplemented with 10% fetal bovine serum, 1% penicillin and streptomycin, and 2 mM L-Glutamine. Cells were sub-cultured by dilution at a ratio of 1:4. MDA-MB-468 cells were harvested by trypsinization and counted using a hemocytometer. Cells were resuspended in PBS at a concentration of 4×10^8 cells per mL. Cells were placed on ice and mixed with an equal volume of Matrigel (BD Biosciences CB-40234). Twenty-two (22) CB-17 SCID mice were inoculated sub-cutaneously in the left flank with 4×10^7 MDA-MB-468 cells. Treatment was initiated when the tumors reached a mean volume of ˜100 mm^3. […] Animals' weights and condition were recorded daily, and tumors were measured on Mondays, Wednesdays, and Fridays.

T1 sequence (O14980 whole entry): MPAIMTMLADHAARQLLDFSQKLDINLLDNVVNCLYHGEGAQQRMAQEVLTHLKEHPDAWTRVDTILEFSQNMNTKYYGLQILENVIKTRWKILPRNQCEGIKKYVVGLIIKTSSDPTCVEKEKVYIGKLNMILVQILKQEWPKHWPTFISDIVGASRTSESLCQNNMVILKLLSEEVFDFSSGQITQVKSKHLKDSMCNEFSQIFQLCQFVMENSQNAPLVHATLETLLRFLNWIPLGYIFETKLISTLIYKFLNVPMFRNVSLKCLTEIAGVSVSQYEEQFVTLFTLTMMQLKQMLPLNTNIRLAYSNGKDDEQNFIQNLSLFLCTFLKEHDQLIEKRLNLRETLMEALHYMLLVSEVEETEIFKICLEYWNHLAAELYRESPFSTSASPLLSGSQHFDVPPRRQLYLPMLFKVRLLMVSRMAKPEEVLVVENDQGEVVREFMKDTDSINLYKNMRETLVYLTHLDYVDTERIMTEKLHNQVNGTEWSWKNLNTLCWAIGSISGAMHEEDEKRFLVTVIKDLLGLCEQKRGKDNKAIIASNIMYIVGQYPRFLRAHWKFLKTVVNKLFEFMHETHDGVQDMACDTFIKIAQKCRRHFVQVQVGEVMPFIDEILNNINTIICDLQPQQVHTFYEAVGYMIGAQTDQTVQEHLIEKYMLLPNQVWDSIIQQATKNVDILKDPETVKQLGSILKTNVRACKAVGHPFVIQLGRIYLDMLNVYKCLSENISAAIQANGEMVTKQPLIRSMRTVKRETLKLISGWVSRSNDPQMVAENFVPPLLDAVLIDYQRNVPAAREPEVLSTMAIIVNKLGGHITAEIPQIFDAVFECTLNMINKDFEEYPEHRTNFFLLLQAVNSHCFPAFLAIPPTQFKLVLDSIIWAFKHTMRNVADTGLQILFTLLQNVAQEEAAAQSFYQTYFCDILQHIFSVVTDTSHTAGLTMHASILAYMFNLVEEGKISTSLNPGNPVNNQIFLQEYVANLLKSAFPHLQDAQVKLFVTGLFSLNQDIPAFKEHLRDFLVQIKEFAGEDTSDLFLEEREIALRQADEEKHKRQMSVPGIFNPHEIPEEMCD

Row | SMILES | IC50 (3T3 cells) [nM] | IC50 (MM1S cells) [nM] | IC50 (Z138 cells) [nM] | IC50 (CRM1) [nM] | mean tumor volume (MDA-MB-468 xenograft)
1 | NC(=O)/C(=C/n1cnc(-c2cc(C(F)(F)F)cc(C(F)(F)F)c2)n1)c1ccnc(F)c1 [Compound 140, (E)-3-(3-(3,5-bis(trifluoromethyl)phenyl)-1H-1,2,4-triazol-1-yl)-2-(2-fluoropyridin-4-yl)acrylamide] | > 30000 | < 100 | < 100 | < 100 | 
2 | NC(=O)/C(=C/n1cnc(-c2cc(C(F)(F)F)cc(C(F)(F)F)c2)n1)c1cncc(Cl)c1 [Compound 141, (E)-3-(3-(3,5-bis(trifluoromethyl)phenyl)-1H-1,2,4-triazol-1-yl)-2-(5-chloropyridin-3-yl)acrylamide] | > 30000 | < 100 | 100 to 5000 | 100 to 5000 | 
3 | NC(=O)/C(=C/n1cnc(-c2cc(C(F)(F)F)cc(C(F)(F)F)c2)n1)c1ccc(Cl)nc1 [Compound 143, (E)-3-(3-(3,5-bis(trifluoromethyl)phenyl)-1H-1,2,4-triazol-1-yl)-2-(6-chloropyridin-3-yl)acrylamide] | > 30000 | < 100 | 100 to 5000 | 100 to 5000 | 
4 | NC(=O)/C(=C/n1cnc(-c2cc(C(F)(F)F)cc(C(F)(F)F)c2)n1)c1ccnc(C(F)(F)F)c1 [Compound 147, (E)-3-(3-(3,5-bis(trifluoromethyl)phenyl)-1H-1,2,4-triazol-1-yl)-2-(2-(trifluoromethyl)pyridin-4-yl)acrylamide] | 100 to 5000 | < 100 | 100 to 5000 | < 100 | 
5 | N#Cc1cncc(/C(=C\n2cnc(-c3cc(C(F)(F)F)cc(C(F)(F)F)c3)n2)C(N)=O)c1 [Compound 148, (E)-3-(3-(3,5-bis(trifluoromethyl)phenyl)-1H-1,2,4-triazol-1-yl)-2-(5-cyanopyridin-3-yl)acrylamide] | > 30000 | < 100 | < 100 | < 100 | 
6 | NC(=O)/C(=C/n1cnc(-c2cc(C(F)(F)F)cc(C(F)(F)F)c2)n1)c1cnc2ccccc2c1 [Compound 149, (E)-3-(3-(3,5-bis(trifluoromethyl)phenyl)-1H-1,2,4-triazol-1-yl)-2-(quinolin-3-yl)acrylamide] | > 30000 | < 100 | < 100 | < 100 | mean tumor volume was reduced
7 | NC(=O)/C(=C\n1cnc(-c2cc(C(F)(F)F)cc(C(F)(F)F)c2)n1)c1ccnc(F)c1 [Compound 155, (Z)-3-(3-(3,5-bis(trifluoromethyl)phenyl)-1H-1,2,4-triazol-1-yl)-2-(2-fluoropyridin-4-yl)acrylamide] | 100 to 5000 | < 100 | < 100 | < 100 | 
8 | NC(=O)/C(=C\n1cnc(-c2cc(C(F)(F)F)cc(C(F)(F)F)c2)n1)c1ccc(Cl)nc1 [Compound 156, (Z)-3-(3-(3,5-bis(trifluoromethyl)phenyl)-1H-1,2,4-triazol-1-yl)-2-(6-chloropyridin-3-yl)acrylamide] | > 30000 | 100 to 5000 | 100 to 5000 | 100 to 5000 | 
